The record followed here is publication PMC11602988 (The Journal of Biological Chemistry, 2024).

One experiment has as its target T1, OCT1 WT (Homo sapiens, UniProt O15245).
T1 sequence (O15245 1-554): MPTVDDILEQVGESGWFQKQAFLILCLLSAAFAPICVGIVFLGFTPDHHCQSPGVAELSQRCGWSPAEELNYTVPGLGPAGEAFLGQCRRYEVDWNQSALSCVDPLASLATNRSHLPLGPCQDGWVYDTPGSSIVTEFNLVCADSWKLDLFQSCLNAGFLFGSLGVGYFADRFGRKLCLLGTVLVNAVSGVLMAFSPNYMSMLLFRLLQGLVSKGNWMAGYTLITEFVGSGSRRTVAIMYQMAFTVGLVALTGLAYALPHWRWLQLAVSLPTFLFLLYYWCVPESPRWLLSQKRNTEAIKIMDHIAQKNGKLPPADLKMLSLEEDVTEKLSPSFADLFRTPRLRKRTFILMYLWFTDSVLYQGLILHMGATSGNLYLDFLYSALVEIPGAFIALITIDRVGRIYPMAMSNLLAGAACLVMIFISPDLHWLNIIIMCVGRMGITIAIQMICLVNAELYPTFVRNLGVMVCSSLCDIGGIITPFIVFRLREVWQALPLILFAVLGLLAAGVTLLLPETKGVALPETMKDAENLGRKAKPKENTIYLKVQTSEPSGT
Description: Uptake screening (transport ratio over empty vector), HEK293 cells overexpressing OCT1 WT.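 Further: intracellular substrate levels quantified by HPLC–tandem mass spectrometry after uptake in HBSS+ buffer at 37 °C, stable Flp-In HEK293 lines, fold change versus empty vector–transfected cells.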 The class given is cell-based. Further details: expressed in transfected cells.

Another experiment concerns the target T2, OCT1 Phe244Ala variant (Homo sapiens, UniProt O15245, F244A).
T2 sequence (O15245 1-554 F244A): T1 sequence (O15245 1-554) with F244A
The experiment can be described thus: Uptake screening (transport ratio over empty vector), HEK293 cells overexpressing OCT1 Phe244Ala variant.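 Further: stably transfected HEK293 cells, intracellular substrate quantified by HPLC-tandem mass spectrometry in cell lysates, uptake in HBSS+ buffer.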 The class given is cell-based. Further details: expressed in transfected cells.

Setting [1] is: uptake ratio of OCT1 WT-overexpressing HEK293 cells over empty vector.
The mark [2] stands for this setting: Phe244Ala uptake relative to OCT1 WT.
Where [3] appears, read: uptake ratio of OCT1 Phe244Ala-overexpressing HEK293 cells over empty vector.
The mark [4] stands for this setting: uptake ratio over empty vector, HEK293 cells overexpressing OCT1 WT.
Setting [5] is: Phe244Ala uptake relative to WT.
Where [6] appears, read: uptake ratio over empty vector, HEK293 cells overexpressing OCT1 Phe244Ala.

The structures appear in SMILES notation. Residue numbers refer to the chain shown, from its start. Where “and” joins values, the source holds several entries; their conditions need not be identical. Identical values can stand only once. Like-named read-outs stand apart in the source and are kept apart here.

Description for OCT1 Phe244Ala variant: (§1) All experiments were carried out using transporter-overexpressing HEK293 cells. […] Cells were cultivated in Dulbecco’s Modified Eagle’s medium supplemented with 10% fetal calf serum, 100 U/ml penicillin, and 100 μg/ml streptomycin. Cells were passaged twice a week and kept in culture for no longer than 30 passages.
(§2) For uptake studies, 300,000 HEK293 cells were plated in each well of 24-well plates precoated with poly-D-lysine 48 prior to the experiment. On the day of the experiment, cells were washed once with prewarmed to 37 °C HBSS+ (Hank’s balanced salt solution supplemented with 10 mM Hepes, both Sigma-Aldrich). […] Uptake was stopped by adding ice-cold HBSS+ and cells were washed twice with ice-cold buffer before cell lysis was done using 80% acetonitrile containing an appropriate internal standard for eventual mass spectrometry. Relative quantification was done by comparison of transporter-overexpressing cells to empty vector–transfected controls. For uptake kinetic experiments, cells were incubated with increasing concentrations of substrate dissolved in HBSS+. Absolute quantification was done later by comparison to a standard curve in lysis buffer with known concentration.
(§3) Intracellular drug concentrations were detected and quantified by HPLC coupled to mass spectrometry. […] Substance-specific conditions were used to adjust the retention times of the analytes.
(§4) Transport ratios were determined as relative fold-increase of the uptake in transporter-overexpressing cells over empty vector–transfected control cells. For transport kinetic experiments, absolute substrate quantification was done by signal comparison to a standard curve with known concentrations. Net uptake was then determined by subtracting the uptake into empty vector–transfected cells from transporter-overexpressing cells. […] Vmax defines the maximum transport velocity, Km refers to the substrate concentration required to reach half vmax. The intrinsic clearance Clint is the ratio of vmax over Km.
Description for OCT1 WT: as §1, §2, §3, §4

As for `CCC(NC(C)C)C(O)c1ccc(O)c(O)c1` (stereo not drawn) [Isoetharine], at OCT1 WT (setting [1]), the Mean_transport_ratio_WT was 15.766. Moreover, the relative_Phe244Ala_uptake_in% at OCT1 Phe244Ala variant (setting [2]) was 103.988%. At OCT1 Phe244Ala variant (setting [3]), the Mean_transport_ratio_Phe244Ala worked out at 16.355.
On the same counts, the results for `CC(C)NCC(O)c1ccc(O)c(O)c1` (stereo not drawn) [Isoproterenol] are 6.241, 28.983% and 2.519.
The corresponding values for `C[n+]1ccc(-c2ccccc2)cc1` [MPP^+, 1-Methyl-4-phenylpyridinium] are 45.919, 63.172% and 29.377.
On the same counts, the results for `CNC1(C)C2CCC(C2)C1(C)C` (stereo not drawn) [Mecamylamine] are 1.579, -72.241% and 0.581.
As for `C[N+]1(C)CCCC(OC(=O)C(O)(c2ccccc2)c2ccccc2)C1` (stereo not drawn) [Mepenzolate], the Mean_transport_ratio_WT at OCT1 WT (setting [1]) is 28.031 and 34.795. In addition, the relative_Phe244Ala_uptake_in% at OCT1 Phe244Ala variant (setting [2]) was 130.959% and 121.132%. The Mean_transport_ratio_Phe244Ala at OCT1 Phe244Ala variant (setting [3]) was 36.4 and 41.936.
With `CCC1(c2cccc(O)c2)CCCCN(C)C1` (stereo not drawn) [Meptazinol], at OCT1 WT, the Mean_transport_ratio_WT was determined as 1.477. Besides, at OCT1 Phe244Ala variant, the Mean_transport_ratio_Phe244Ala is on record as 1.571 and the relative_Phe244Ala_uptake_in% was determined as 119.786%.
Consider `NC(N)=NCc1cccc(I)c1` [Metaiodobenzylguanidine], for which the Mean_transport_ratio_WT at OCT1 WT (setting [1]) is recorded as 11.544. Also, at OCT1 Phe244Ala variant (setting [2]), the relative_Phe244Ala_uptake_in% was 96.674%. Besides, at OCT1 Phe244Ala variant (setting [3]), the Mean_transport_ratio_Phe244Ala worked out at 11.193.
The corresponding values for `CNCC(O)c1ccc(O)c(OC)c1` (stereo not drawn) [Metanephrine] are 7.123, 38.392% and 3.351.
On the same counts, the results for `C[N@+]1(CC2CC2)CC[C@]23c4c5ccc(O)c4O[C@H]2C(=O)CC[C@@]3(O)[C@H]1C5` [Methylnaltrexone] are 47.714, 139.178% and 66.016.
On the same counts, the results for `Cc1ncccc1C(N)=O` [Methylnicotinamide] are 3.894, -6.232% and 0.82.
`CNCc1ccc(CSCCNC(=C[N+](=O)[O-])NC)o1` [N-Desmethyl ranitidine]: the Mean_transport_ratio_WT on OCT1 WT (setting [4]) came to 35.663. In addition, the relative_Phe244Ala_uptake_in% on OCT1 Phe244Ala variant (setting [5]) was determined as 88.566%. Moreover, the Mean_transport_ratio_Phe244Ala on OCT1 Phe244Ala variant (setting [6]) is recorded as 31.7.
Regarding `CC[N+](CC)(CC)CC(=O)Nc1c(C)cccc1C` [N-Ethyllidocaine], on OCT1 WT (setting [4]), the Mean_transport_ratio_WT is 41.537. For the same compound, the relative_Phe244Ala_uptake_in% at OCT1 Phe244Ala variant (setting [5]) is on record as 129.074%. Moreover, the Mean_transport_ratio_Phe244Ala on OCT1 Phe244Ala variant (setting [6]) stood at 53.323.
Consider `CNCCc1ccc(O)cc1` [N-Methyl-p-tyramine], for which the Mean_transport_ratio_WT at OCT1 WT (setting [1]) was 6.673. In addition, the relative_Phe244Ala_uptake_in% on OCT1 Phe244Ala variant (setting [2]) is 12.133%. The Mean_transport_ratio_Phe244Ala at OCT1 Phe244Ala variant (setting [3]) was found to be 1.688.
On the same counts, the results for `CNCCc1c[nH]c2ccc(O)cc12` [N-Methylserotonin] are 31.114, 24.160% and 8.275.
The corresponding values for `CC(C)(C)NCC(O)COc1cccc2c1CC(O)C(O)C2` (stereo not drawn) [Nadolol] are 9.921, 142.415% and 13.705.
`CN(C)C(=O)Oc1cccc([N+](C)(C)C)c1` [Neostigmine]: at OCT1 WT (setting [1]), the Mean_transport_ratio_WT is recorded as 51.144. At OCT1 Phe244Ala variant (setting [2]), the relative_Phe244Ala_uptake_in% was 23.835%. Besides, the Mean_transport_ratio_Phe244Ala on OCT1 Phe244Ala variant (setting [3]) amounted to 12.952.
The corresponding values for `CNC(=C[N+](=O)[O-])NCCSCc1csc(CN(C)C)n1` [Nizatidine] are 4.961, 10.436% and 1.413.
On the same counts, the results for `NCC(O)c1cccc(O)c1` (stereo not drawn) [Norphenylephrine] are 2.898, 40.709% and 1.772.
`CN(C)CC(c1ccc(O)cc1)C1(O)CCCCC1` (stereo not drawn) [O-Desmethylvenlafaxine]: the Mean_transport_ratio_WT at OCT1 WT (setting [4]) turned out to be 2.309. At OCT1 Phe244Ala variant (setting [5]), the relative_Phe244Ala_uptake_in% worked out at 159.771%. Also, the Mean_transport_ratio_Phe244Ala on OCT1 Phe244Ala variant (setting [6]) is 3.092.
For `NCC(O)c1ccc(O)cc1` (stereo not drawn) [Octopamine], the Mean_transport_ratio_WT on OCT1 WT (setting [1]) came to 3.942. Also, the relative_Phe244Ala_uptake_in% on OCT1 Phe244Ala variant (setting [2]) was determined as 54.574%. At OCT1 Phe244Ala variant (setting [3]), the Mean_transport_ratio_Phe244Ala is on record as 2.606.
As to `COc1ccc(CC(C)(C)NC[C@H](O)c2cc(O)cc3c2OCC(=O)N3)cc1` [Olodaterol], on OCT1 WT (setting [4]), the Mean_transport_ratio_WT is 6.02. At OCT1 Phe244Ala variant (setting [2]), the relative_Phe244Ala_uptake_in% amounted to 139.279%. The Mean_transport_ratio_Phe244Ala on OCT1 Phe244Ala variant (setting [6]) is 7.992.
On the same counts, the results for `Cc1nccn1CC1CCc2c(c3ccccc3n2C)C1=O` (stereo not drawn) [Ondansetron] are 1.554, 92.867% and 1.514.
On the same counts, the results for `Cc1cc(C(C)(C)C)c(O)c(C)c1CC1=NCCN1` [Oxymetazoline] are 8.039, 112.174% and 8.896.
On the same counts, the results for `CC[N+](C)(CC)CCOC(=O)C(O)(c1ccccc1)C1CCCCC1` (stereo not drawn) [Oxyphenonium] are 32.636, 124.905% and 40.516.
Take `COc1cc2c(cc1OC)-c1cc3ccc(OC)c(OC)c3c[n+]1CC2` [Palmatin]: the Mean_transport_ratio_WT on OCT1 WT (setting [4]) is 7.047. The relative_Phe244Ala_uptake_in% at OCT1 Phe244Ala variant (setting [2]) was determined as 65.326%. Further, the Mean_transport_ratio_Phe244Ala on OCT1 Phe244Ala variant (setting [6]) came out at 4.951.
The corresponding values for `[H]/N=C(/N)N/C(=N/[H])NCCc1ccccc1` [Phenformin] are 29.083, 112.534% and 32.603.
In the case of `CNC[C@H](O)c1cccc(O)c1` [Phenylephrine], the Mean_transport_ratio_WT on OCT1 WT (setting [4]) was found to be 9.854. For the same compound, the relative_Phe244Ala_uptake_in% on OCT1 Phe244Ala variant (setting [2]) is 29.477%. The Mean_transport_ratio_Phe244Ala on OCT1 Phe244Ala variant (setting [6]) turned out to be 3.61.
On the same counts, the results for `CC(C)(C)NCC(O)c1ccc(O)c(CO)n1` (stereo not drawn) [Pirbuterol] are 68.047, 79.364% and 54.212.
The corresponding values for `CN1CCN(CC(=O)N2c3ccccc3C(=O)Nc3cccnc32)CC1` [Pirenzipin] are 1.911, 803.892% and 8.32.
Turning to `CC(=O)Nc1ccc(OCC(O)CNC(C)C)cc1` (stereo not drawn) [Practolol], on OCT1 WT (setting [4]), the Mean_transport_ratio_WT worked out at 2.092. The relative_Phe244Ala_uptake_in% at OCT1 Phe244Ala variant (setting [2]) is given as 83.607%. Moreover, the Mean_transport_ratio_Phe244Ala on OCT1 Phe244Ala variant (setting [6]) is given as 1.913.
Regarding `[H]/N=C(\N/C(=N/[H])Nc1ccc(Cl)cc1)NC(C)C` [Proguanil], the Mean_transport_ratio_WT on OCT1 WT (setting [4]) was 9.904. Besides, the relative_Phe244Ala_uptake_in% on OCT1 Phe244Ala variant (setting [2]) came out at 103.560%. The Mean_transport_ratio_Phe244Ala at OCT1 Phe244Ala variant (setting [6]) was 10.221.
In the case of `CC(C)[N+](C)(CCOC(=O)C1c2ccccc2Oc2ccccc21)C(C)C` [Propanthelinbromid], the Mean_transport_ratio_WT at OCT1 WT (setting [4]) was found to be 8.263. In addition, the relative_Phe244Ala_uptake_in% at OCT1 Phe244Ala variant (setting [2]) came to 191.888%. On OCT1 Phe244Ala variant (setting [6]), the Mean_transport_ratio_Phe244Ala turned out to be 14.937.
Regarding `CN[C@@H]1CCc2[nH]c3ccc(C(N)=O)cc3c2C1` [R-Frovatriptan], at OCT1 WT (setting [4]), the Mean_transport_ratio_WT was determined as 16.171. In addition, the relative_Phe244Ala_uptake_in% on OCT1 Phe244Ala variant (setting [2]) is 64.599%. At OCT1 Phe244Ala variant (setting [6]), the Mean_transport_ratio_Phe244Ala is reported as 10.8.
On the same counts, the results for `CC(CCc1ccc(O)cc1)NCC(O)c1ccc(O)cc1` (stereo not drawn) [Ractopamine] are 6.92, 102.038% and 7.041.
On the same counts, the results for `CNC(=C[N+](=O)[O-])NCCSCc1ccc(CN(C)C)o1` [Ranitidin] are 17.125, 66.532% and 11.729.
